According to PubChem BioAssay (NCI):
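The compound was tested at five concentrations on cells cultured in 96-well plates, with a 48-hour exposure period. GI50 = concentration required for 50% inhibition of growth. TGI: concentration producing complete growth inhibition.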

Assays:
Experiment in all cases: NCI anticancer screen, dose series, 48 h
[1] = system: 786-0 renal
[2] = system: A498 renal
[3] = system: A549 NSCLC
[4] = system: ACHN renal
[5] = system: BT-549 breast
[6] = system: CAKI-1 renal
[7] = system: CCRF-CEM leukemia
[8] = system: COLO 205 colon
[9] = system: DU-145 prostate
[10] = system: EKVX NSCLC
[11] = system: HCC-2998 colon
[12] = system: HCT-116 colon
[13] = system: HCT-15 colon
[14] = system: HL-60(TB) leukemia
[15] = system: HOP-62 NSCLC
[16] = system: HOP-92 NSCLC
[17] = system: HS 578T breast
[18] = system: HT29 colon
[19] = system: IGROV1 ovarian
[20] = system: K-562 leukemia
[21] = system: KM12 colon
[22] = system: LOX IMVI melanoma
[23] = system: M14 melanoma
[24] = system: MALME-3M melanoma
[25] = system: MCF7 breast
[26] = system: MDA-MB-231 breast
[27] = system: MDA-MB-435
[28] = system: MOLT-4 leukemia
[29] = system: NCI-H226 lung

Q: For `O=C1/C(=C/c2ccc(Cl)cc2)COc2ccc(O)cc21`, which GI50 [1] is on record?
A: The GI50 was 2.04 µM.

Q: What about the TGI [1] of the same compound?
A: The TGI was 4.58 µM.

Q: And the GI50 [2]?
A: The GI50 was 13.9 µM.

Q: What about the TGI [2] of the same compound?
A: Its TGI is 27.7 µM.

Q: And the GI50 [3]?
A: The GI50 was 9.28 µM.

Q: What about the TGI [3] of the same compound?
A: Its TGI is 30.7 µM.

Q: And the GI50 [4]?
A: Its GI50 is 2.39 µM.

Q: And the TGI [4]?
A: Its TGI is 5.68 µM.

Q: What about the GI50 [5] of the same compound?
A: The GI50 was 3.34 µM.

Q: What about the TGI [5] of the same compound?
A: Its TGI is 11.5 µM.

Q: And the GI50 [6]?
A: The GI50 was 2.02 µM.

Q: And the TGI [6]?
A: The TGI was 5.3 µM.

Q: And the GI50 [7]?
A: Its GI50 is 0.291 µM.

Q: What about the TGI [7] of the same compound?
A: Its TGI is 1.82 µM.

Q: And the GI50 [8]?
A: Its GI50 is 1.86 µM.

Q: What about the TGI [8] of the same compound?
A: The TGI was 4.63 µM.

Q: And the GI50 [9]?
A: The GI50 was 3.69 µM.

Q: And the TGI [9]?
A: The TGI was 13 µM.

Q: What about the GI50 [10] of the same compound?
A: The GI50 was 7.31 µM.

Q: What about the TGI [10] of the same compound?
A: Its TGI is 20.4 µM.

Q: And the GI50 [11]?
A: The GI50 was 1.82 µM.

Q: And the TGI [11]?
A: Its TGI is 3.33 µM.

Q: And the GI50 [12]?
A: The GI50 was 1.61 µM.

Q: And the TGI [12]?
A: The TGI was 3.08 µM.

Q: And the GI50 [13]?
A: Its GI50 is 1.84 µM.

Q: What about the TGI [13] of the same compound?
A: The TGI was 4.04 µM.

Q: What about the GI50 [14] of the same compound?
A: The GI50 was 1.36 µM.

Q: And the TGI [14]?
A: The TGI was 4.36 µM.

Q: And the GI50 [15]?
A: The GI50 was 6.31 µM.

Q: What about the TGI [15] of the same compound?
A: The TGI was 22.5 µM.

Q: And the GI50 [16]?
A: The GI50 was 8.84 µM.

Q: What about the TGI [16] of the same compound?
A: The TGI was 37.6 µM.

Q: And the GI50 [17]?
A: The GI50 was 3.22 µM.

Q: What about the TGI [17] of the same compound?
A: The TGI was 18.1 µM.

Q: And the GI50 [18]?
A: Its GI50 is 2.67 µM.

Q: What about the TGI [18] of the same compound?
A: The TGI was 6.61 µM.

Q: What about the GI50 [19] of the same compound?
A: The GI50 was 1.67 µM.

Q: And the TGI [19]?
A: Its TGI is 3.31 µM.

Q: And the GI50 [20]?
A: The GI50 was 2.55 µM.

Q: And the TGI [20]?
A: Its TGI is 25.8 µM.

Q: What about the GI50 [21] of the same compound?
A: The GI50 was 2.04 µM.

Q: And the TGI [21]?
A: The TGI was 4.46 µM.

Q: What about the GI50 [22] of the same compound?
A: The GI50 was 1.74 µM.

Q: What about the TGI [22] of the same compound?
A: The TGI was 3.18 µM.

Q: What about the GI50 [23] of the same compound?
A: Its GI50 is 2.33 µM.

Q: What about the TGI [23] of the same compound?
A: The TGI was 6.31 µM.

Q: What about the GI50 [24] of the same compound?
A: Its GI50 is 2.37 µM.

Q: What about the TGI [24] of the same compound?
A: Its TGI is 6.08 µM.

Q: What about the GI50 [25] of the same compound?
A: Its GI50 is 1.41 µM.

Q: What about the TGI [25] of the same compound?
A: Its TGI is 2.96 µM.

Q: And the GI50 [26]?
A: Its GI50 is 2.73 µM.

Q: And the TGI [26]?
A: Its TGI is 8.62 µM.

Q: What about the GI50 [27] of the same compound?
A: The GI50 was 2.77 µM.

Q: What about the TGI [27] of the same compound?
A: Its TGI is 8.2 µM.

Q: And the GI50 [28]?
A: Its GI50 is 1.84 µM.

Q: What about the TGI [28] of the same compound?
A: Its TGI is 8.23 µM.

Q: And the GI50 [29]?
A: The GI50 was 2.68 µM.

Q: What about the TGI [29] of the same compound?
A: The TGI was 7.61 µM.
